# Results: patent publication US7087648B1, “Methods for modulating macrophage proliferation using polyamine analogs” (The Regents of the University of California, priority 1997, dated 2006)
# Experiments:
# [1] = system: CD14^+/PCNA^+ peripheral blood macrophage; experiment: In vitro CD14/PCNA staining (FACSCAN) of PBMC from AIDS dementia patients cultured five days with agent; format: cell-based, human; conditions: for effect on macrophage proliferation: blood of one patient with AIDS dementia, Table 2; for CD14^+, PCNA^+ / TOTAL CD14/PCNA: one patient with AIDS dementia; for CD14^+, PCNA^+: 0 drug: 64/5000; for TOTAL CD14/PCNA: 0 drug: 388; for inhibition and/or killing of blood PCNA^+/CD14^+ cells: summary of the data shown; for CD14^+/PCNA^+ / CD14^+/PCNA^− / total CD14: HIV dementia patient five; for CD14^+/PCNA^+: 0 drug: 74; for CD14^+/PCNA^−: 0 drug: 472; for total CD14: 0 drug: 546
# Description: We had previously separated peripheral blood monocytes on Ficoll. […] We then used Percoll gradient separation, which allows for denser cells to be captured. A two-step gradient was prepared in 15 mL conical tubes: bottom layer of 1.087 density Percoll, overlaid with 1.077 density. 1.5 mL whole heparinised blood was mixed with an equal volume of isotonic saline. This blood/saline was layered over the gradient and centrifuged. Cells from the 1.077 and 1.087 interfaces were collected, combined, and washed in 5 volumes of RPMI 1640. […] All further experiments were performed using 1.087 gradient.
# Five×10^5 PBMC's isolated through a 1.087 g/cc Percoll/saline gradient were exposed to varied concentrations of agent after baseline CD14/PCNA staining was performed. The cells were cultured at 5×10^5 cells in RPM1-1640/10% fetal calf serum in a polypropylene tube (Falcon) at 37° C. for five days. After five days CD14/PCNA staining was performed on control and agent-treated cultures. FACSCAN analysis of PCNA-positive cells in control cultures was compared with agent-treated cultures and the percentage of control PCNA/CD14 cells was calculated. The results of such an experiment in which the effect of polyamine analog DEHOP (SunPharm; Florida) on proliferating macrophages (as detected by PCNA) from the blood of four patients with AIDS dementia are shown in FIG. 1A (with underlying data provided in Table 3). […] A comparison of the inhibitory effect of DEHOP and cyclosphosphamide, another anti-proliferative agent, was performed in vitro using the blood of one of these patients (“CB”).
# [2] = system: CD14^+/PCNA^+ peripheral blood macrophage; experiment: as above; format: cell-based, human; conditions: one patient with AIDS dementia, 0 drug: 35/5000
# PCNA^+ macrophage = experiment: Inhibition of PCNA^+ macrophage detection, peripheral blood of HIV^+ sarcoid patient; format: cell-based, human; conditions: 60% of input CD14 cells PCNA^+, 96 hr after drug exposure and culture, FIG. 5
# Description: Five×10^5 PBMC's isolated through a 1.087 g/cc Percoll/saline gradient were exposed to varied concentrations of agent after baseline CD14/PCNA staining was performed. […] FACSCAN analysis of PCNA-positive cells in control cultures was compared with agent-treated cultures and the percentage of control PCNA/CD14 cells was calculated.
# [3] = system: human brain tumor cell lines; conditions: cited from earlier work
# [4] = system: rat aortic smooth muscle cells; conditions: in culture for 8 to 15 days; cited from earlier work
# PCNA/CD14 cells = experiment: PCNA expression of peripheral macrophages (CD14 cells) from patients with AD, five days culture with agent; format: cell-based, human; conditions: FIG. 3
# Description: We had previously separated peripheral blood monocytes on Ficoll. […] We then used Percoll gradient separation, which allows for denser cells to be captured. A two-step gradient was prepared in 15 mL conical tubes: bottom layer of 1.087 density Percoll, overlaid with 1.077 density. 1.5 mL whole heparinised blood was mixed with an equal volume of isotonic saline. This blood/saline was layered over the gradient and centrifuged. Cells from the 1.077 and 1.087 interfaces were collected combined, and washed in 5 volumes of RPMI 1640.
# Five×10^5 PBMC's isolated through a 1.087 g/cc Percoll/saline gradient were exposed to varied concentrations of agent after baseline CD14/PCNA staining was performed as described in Example 3. The cells were cultured at 5×1O^5 cells in RPM1-1640/10% fetal calf serum in a polypropylene tube (Falcon) at 37° C. for five days. After five days CDI 14/PCNA staining was performed on control and agent-treated cultures. FACSCAN analysis of PCNA-positive cells in control cultures was compared with agent-treated cultures and percentage of control PCNA/CD14 cells was calculated. Two polyamine analogs, DENOP (SunPharm; Florida) and SL-11037 were tested.
# [5] = system: spermidine-spermine N1-acetyltransferase (SSAT); conditions: human melanoma cells; cited from earlier work
# [6] = biological target: T1, S-adenosylmethionine decarboxylase (Homo sapiens, UniProt P17707); conditions: competing with S-adenosylmethionine; cited from earlier work
# T1 sequence (P17707 68-334 limits assumed): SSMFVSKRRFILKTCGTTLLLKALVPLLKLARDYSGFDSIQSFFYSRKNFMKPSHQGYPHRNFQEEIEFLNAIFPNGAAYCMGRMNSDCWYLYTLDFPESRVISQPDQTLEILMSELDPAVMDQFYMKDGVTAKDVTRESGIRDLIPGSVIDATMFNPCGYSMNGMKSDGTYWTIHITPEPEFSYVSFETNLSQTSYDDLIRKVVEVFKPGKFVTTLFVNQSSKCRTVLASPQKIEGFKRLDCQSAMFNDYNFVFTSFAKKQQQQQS
# T1 sequence (P17707 1-67 limits assumed): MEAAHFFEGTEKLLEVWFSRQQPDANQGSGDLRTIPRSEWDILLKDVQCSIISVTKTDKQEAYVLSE
# leukemic ascites cells = conditions: cited from earlier work
# spermine synthase = biological target: T2, spermine synthase (Homo sapiens, UniProt P52788); conditions: competing with spermidine; cited from earlier work
# T2 sequence (P52788 1-366): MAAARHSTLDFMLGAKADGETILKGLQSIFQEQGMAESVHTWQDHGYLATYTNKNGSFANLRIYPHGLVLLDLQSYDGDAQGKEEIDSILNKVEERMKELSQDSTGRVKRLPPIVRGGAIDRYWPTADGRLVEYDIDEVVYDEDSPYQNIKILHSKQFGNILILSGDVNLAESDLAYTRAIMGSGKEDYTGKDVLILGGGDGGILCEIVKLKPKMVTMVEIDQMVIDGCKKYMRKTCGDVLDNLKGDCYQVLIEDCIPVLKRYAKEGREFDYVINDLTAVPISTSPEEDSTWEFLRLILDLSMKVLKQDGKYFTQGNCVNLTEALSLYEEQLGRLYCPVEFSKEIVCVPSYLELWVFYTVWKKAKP
# spermine synthetase = conditions: competing with putrescine; cited from earlier work
# P388 leukemia = conditions: mice bearing P388 leukemia; cited from earlier work
smiles,measurement,setting,value
"CCNCCCNC[C@@H]1CC[C@H]1CNCCCNCC.Cl.Cl.Cl.Cl (relative stereo) [SL-11038, N-ethyl-N′-(2-(3′-ethylamino-propylaminomethyl)-trans-cyclobutylmethyl)-propane 1; 3-diamine tetrahydrochloride]",effect on macrophage proliferation,[1],showed inhibitory effects
same,"CD14^+, PCNA^+",[1]; 2 μM,"104/ NO. OF CELLS/5,000"
same,TOTAL CD14/PCNA,[1]; 2 μM,"356 NO. OF CELLS/5,000"
same,"CD14^+, PCNA^+",[1]; 10 μM,"36/ NO. OF CELLS/5,000"
same,TOTAL CD14/PCNA,[1]; 10 μM,"205 NO. OF CELLS/5,000"
same,"CD14^+, PCNA^+",[1]; 50 μM,"24/ NO. OF CELLS/5,000"
same,TOTAL CD14/PCNA,[1]; 50 μM,"104 NO. OF CELLS/5,000"
same,inhibition and/or killing of blood PCNA^+/CD14^+ cells,[1],potent inhibition and/or killing
same,"CD14^+, CD69^+",[2]; 2 μM,"32/ NO. OF CELLS/5,000"
same,"CD14^+, CD69^+",[2]; 10 μM,"32/ NO. OF CELLS/5,000"
same,"CD14^+, CD69^+",[2]; 50 μM,"26/ NO. OF CELLS/5,000"
"CCNCCCNC[C@@H]1C[C@H]1CNCCCNCC.Cl.Cl.Cl.Cl (relative stereo) [SL-11044, N-ethyl-N′-(2-(3′-ethylamino-propylaminomethyl)-trans-cyclopropylmethyl)-propane 1,3-diamine tetrahydrochloride]",inhibition and/or killing of blood PCNA^+/CD14^+ cells,[1],potent inhibition and/or killing
same,inhibition of PCNA^+ macrophage detection,PCNA^+ macrophage,potent inhibitors
"CCNCCCCNCCCCNCCCCNCCCCNCC [BE-4444, 1,19-bis(ethylamino)-5,10,15-triazanonadecane]","growth, survival, and cell cycle progression",[3],"directly affects growth, survival, and cell cycle progression"
same,killing of PCNA^+/CD14^+ cells,[1]; FIG. 1B,potent killing
same,inhibition and/or killing of blood PCNA^+/CD14^+ cells,[1],potent inhibition and/or killing
"CCNCCCNCCCNCCCNCC [Bis-ethyl norspermine, 1,11 -bis(ethyl)norspermine]",cell growth,[4],inhibit the growth
"O=P1(N(CCCl)CCCl)NCCCO1 (stereo not drawn) [Cyclophosphamide, reference compound]",CD14^+/PCNA^+,[1]; 5 μg/ml,"70 #cells/10,000 PBMC"
same,CD14^+/PCNA^−,[1]; 5 μg/ml,"272 #cells/10,000 PBMC"
same,total CD14,[1]; 5 μg/ml,"342 #cells/10,000 PBMC"
same,CD14^+/PCNA^+,[1]; 0.005 (μg/ml),"71 #cells/10,000 PBMC"
same,CD14^+/PCNA^−,[1]; 0.005 (μg/ml),"295 #cells/10,000 PBMC"
same,total CD14,[1]; 0.005 (μg/ml),"366 #cells/10,000 PBMC"
same,CD14^+/PCNA^+,[1]; 0.05 (μg/ml),"99 #cells/10,000 PBMC"
same,CD14^+/PCNA^−,[1]; 0.05 (μg/ml),"455 #cells/10,000 PBMC"
same,total CD14,[1]; 0.05 (μg/ml),"554 #cells/10,000 PBMC"
same,CD14^+/PCNA^+,[1]; 0.5 (μg/ml),"49 #cells/10,000 PBMC"
same,CD14^+/PCNA^−,[1]; 0.5 (μg/ml),"390 #cells/10,000 PBMC"
same,total CD14,[1]; 0.5 (μg/ml),"439 #cells/10,000 PBMC"
same,in vitro toxicity in this assay system,[1]; blood of patient five,lack of in vitro toxicity
"CCNCCCNCCCNCCCNCC [DENOP, diethyl-norspermine]",effect on macrophage proliferation,[1],showed inhibitory effects
same,"CD14^+, PCNA^+",[1]; 2 μM,"34/ NO. OF CELLS/5,000"
same,TOTAL CD14/PCNA,[1]; 2 μM,"149 NO. OF CELLS/5,000"
same,"CD14^+, PCNA^+",[1]; 10 μM,"23/ NO. OF CELLS/5,000"
same,TOTAL CD14/PCNA,[1]; 10 μM,"50 NO. OF CELLS/5,000"
same,"CD14^+, PCNA^+",[1]; 50 μM,"19/ NO. OF CELLS/5,000"
same,TOTAL CD14/PCNA,[1]; 50 μM,"43 NO. OF CELLS/5,000"
same,inhibition and/or killing of blood PCNA^+/CD14^+ cells,[1],potent inhibition and/or killing
same,percentage of proliferating macrophages (PCNA/CD14 cells),PCNA/CD14 cells,significantly reduced the percentage of proliferating macrophages
same,"CD14^+, CD69^+",[2]; 2 μM,"32/ NO. OF CELLS/5,000"
same,"CD14^+, CD69^+",[2]; 10 μM,"23/ NO. OF CELLS/5,000"
same,"CD14^+, CD69^+",[2]; 50 μM,"32/ NO. OF CELLS/5,000"
"CCNCCCNCCCNCCCNCC [DENSPM, 1,1 1-diethylnorspermine]",increase in immunodetectable SSAT protein,[5],300 fold
same,increase of SSAT mRNA levels,[5],up to 20 fold
"CC(C=NNC(=N)NC1CCCC1)=NNC(=N)NC1CCCC1 [MGBCP, methylglyoxal-bis(cyclopentylamidinohydrazone)]",inhibition of S-adenosylmethionine decarboxylase,[6],inhibited
same,spermidine and spermine in cells,leukemic ascites cells,depleted
same,inhibition of spermine synthase,spermine synthase,inhibited
same,inhibition of spermine synthetase,spermine synthetase,inhibited
same,survival time,P388 leukemia,prolonged survival time
"CCNCCCNC[C@@H]1C[C@@H]1CNCCCNCC.Cl.Cl.Cl.Cl [SL-11037, N-ethyl-N′-(2-(3′-ethylamino-propylaminomethyl)-cis-cyclopropylmethyl)-propane 1,3-diamine tetrahydrochloride]",effect on macrophage proliferation,[1],showed inhibitory effects
same,"CD14^+, PCNA^+",[1]; 2 μM,"49/ NO. OF CELLS/5,000"
same,TOTAL CD14/PCNA,[1]; 2 μM,"276 NO. OF CELLS/5,000"
same,"CD14^+, PCNA^+",[1]; 10 μM,"32/ NO. OF CELLS/5,000"
same,TOTAL CD14/PCNA,[1]; 10 μM,"116 NO. OF CELLS/5,000"
same,"CD14^+, PCNA^+",[1]; 50 μM,"11/ NO. OF CELLS/5,000"
same,TOTAL CD14/PCNA,[1]; 50 μM,"79 NO. OF CELLS/5,000"
same,inhibition and/or killing of blood PCNA^+/CD14^+ cells,[1],potent inhibition and/or killing
same,percentage of proliferating macrophages (PCNA/CD14 cells),PCNA/CD14 cells,significantly reduced the percentage of proliferating macrophages
same,"CD14^+, CD69^+",[2]; 2 μM,"46/ NO. OF CELLS/5,000"
same,"CD14^+, CD69^+",[2]; 10 μM,"49/ NO. OF CELLS/5,000"
same,"CD14^+, CD69^+",[2]; 50 μM,"33/ NO. OF CELLS/5,000"
"CCNCCCNC/C=C\CNCCCNCC.Cl.Cl.Cl.Cl [SL-11047, N,N′-bis(3-ethylaminopropyl)-cis-but-2-ene-1,4-diamine tetrahydrochloride]",PCNA^+/CD14 cell survival,"[1]; FIG. 6, averages of several (N) experiments",decrease
same,inhibition and/or killing of blood PCNA^+/CD14^+ cells,[1],potent inhibition and/or killing
same,inhibition of PCNA^+ macrophage detection,PCNA^+ macrophage,potent inhibitors
NCCCNCCCCNCCCN [spermine],increase in immunodetectable SSAT protein,[5],~7 fold
same,increase of SSAT mRNA levels,[5],~3 fold
